Experimental data from patent US20250222120A1, “SYNTHESIS OF NOVEL SMALL MOLECULE CARM1 DEGRADERS, COMPOUNDS FORMED THEREBY, AND PHARMACEUTICAL COMPOSITIONS CONTAINING THEM” (Wisconsin Alumni Research Foundation, priority 2024, published 2025).

Key:
[1] = tested on: MCF7 cells; experiment: Global quantitative proteomic analysis of MCF7 cells by mass spectrometry; assay type: cell-based, Homo sapiens; conditions: 25 nM, 4 h, two-fold cutoff, p-value ≤0.05, 3491 proteins quantified
Experimental: Sample preparation for global proteomics analysis. Sample preparation is similar to the previous report (Ma et al. “Strategy Based on Deglycosylation, Multiprotease, and Hydrophilic Interaction Chromatography for Large-Scale Profiling of Protein Methylation” Anal. Chem. 2017, 89 (23), 12909-12917). Briefly, treated MCF7 cells were harvested by washing with PBS buffer (Gibco, pH 7.4) and lysed in RIPA buffer supplemented with protease inhibitors for 20 min, then protein concentration was determined using a BCA Protein Assay Kit (Thermo Pierce, Rockford, IL) per manufacturer instructions. […] The concentrations of the peptide mixture were measured by peptide assay (Thermo Fisher Scientific). […]
LC-MS/MS data acquisition. Samples were analyzed on an Orbitrap Fusion Lumos Tribrid mass spectrometer (Thermo Fisher Scientific) coupled to a Dionex UltiMate 3000 UPLC system. […]
Data analysis. Protein identification and quantification by MaxQuant (version 1.5.3.8) based database searching, using the integrated Andromeda search engine with FDR <1% at peptide and protein levels. […] For label-free protein quantification (LFQ), the MaxQuant LFQ algorithm was used to quantitate the MS signals, and the proteins' intensities were represented in LFQintesnit (Schaab et al. “Analysis of High Accuracy, Quantitative Proteomics Data in the MaxQB Database” Mol. Cell. Proteomics 2012, 11 (3), M111.014068). […]

[2] = tested on: PABP1 and BAF155 di-methylation by CARM1; experiment: PABP1 and BAF155 di-methylation (me2a) inhibition in MCF7 cells, western blot; assay type: cell-based, human; conditions: 24 h, 0.1 μM 3b versus 10 μM TP-064
Description: (See Wang et al. “CARM1 Methylates Chromatin Remodeling Factor BAF155 to Enhance Tumor Progression and Metastasis” Cancer Cell 2014, 25 (1), 21-36; Lee and Bedford. “PABP1 Identified as an Arginine Methyltransferase Substrate Using High-Density Protein Arrays” EMBO Rep. 2002, 3 (3), 268-273.) In fact, asymmetric dimethylation (me2a) of these proteins are routinely investigated for CARM1 inhibitors.
Western Blot Assay. Cells were harvested and washed with Dulbecco's phosphate-buffered saline (PBS), then lysed with 1×RIPA lysis buffer (50 mM Tris pH 7.5, 150 mM NaCl, 1% NP-40, 0.5% sodium deoxycholate, and 0.1% sodium dodecyl sulfate) supplemented with 1 mM phenylmethylsulfonyl fluoride, 10 μg/mL aprotinin, 1 μM leupeptin, and 10 μg/mL pepstatin on ice for 20 min. The supernatant was collected after spinning down at 15000 RPM at 4 degrees Celsius for 10 min. The concentration of whole lysates was quantified using a Bradford assay. 50-75 μg of cell lysates was boiled in 4× Laemmli Loading Dye and boiled at 100 degrees Celsius for 10 min. 25 μg were run in 8% SDS-PAGE gels and transferred to nitrocellulose membranes. Blots were blocked in 5% skim milk in PBST [PBS and 0.1% Tween 20] for 45 min, then incubated with primary antibodies at 4 degrees Celsius overnight. […]

CNCCN1CCC(c2cc(CN(C)C(=O)c3cccc(Oc4ccc(OCC(=O)N5CCC(CN6CCC(CN7CCN(CC(=O)N[C@H](C(=O)N8C[C@H](O)C[C@H]8C(=O)N[C@@H](C)c8ccc(-c9scnc9C)cc8)C(C)(C)C)CC7)CC6)CC5)cc4)c3)ccn2)CC1 [Compound 3b, (2S,4R)-1-((S)-3,3-dimethyl-2-(2-(4-((1-((1-(2-(4-(3-(methyl((2-(1-(2-(methylamino)ethyl)piperidin-4-yl)pyridin-4-yl)methyl)carbamoyl)phenoxy)phenoxy)acetyl)piperidin-4-yl)methyl)piperidin-4-yl)methyl)piperazin-1-yl)acetamido)butanoyl)-4-hydroxy-N—((S)-1-(4-(4-methylthiazol-5-yl)phenyl)ethyl)pyrrolidine-2-carboxamide]
Number of significantly changed proteins compared to the DMSO group [1]: 25 | Levels of PABP1 and BAF155 me2a inhibition [2]: at least as equivalent to that of 10 μM of TP-064
